Experimental data from patent US10851102B2, “Imidazole and triazole containing bicyclic compounds as JAK inhibitors” (THERAVANCE BIOPHARMA R&D IP, LLC, priority 2019, dated 2020).

Tests used:
JAK1 = JAK1 (Homo sapiens (Human), UniProt P23458); experiment: Biochemical JAK and Tyk2 kinase assays (LanthaScreen): JAK1; details: 1 h pre-incubation, ATP at Km; pIC50 converted to pKi by Cheng-Prusoff
Method in brief: (§1)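 TR-FRET (520/495 nm ratio) detection of STAT1 pTyr701 phosphorylation on a GFP-STAT1 peptide by GST-tagged JAK kinase. Reactions ran 1 h at room temperature with 1% DMSO after 1 h compound–enzyme–substrate preincubation. pIC50 values converted to pKi via Cheng-Prusoff.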

JAK2 = JAK2 (Homo sapiens (Human), UniProt O60674); experiment: Biochemical JAK and Tyk2 kinase assays (LanthaScreen): JAK2; details: 1 h pre-incubation, ATP at Km, pIC50 converted to pKi by Cheng-Prusoff; for Ki: read-out: JAK 2 (pKi) (converted)
Sequence of JAK2 (O60674 whole entry): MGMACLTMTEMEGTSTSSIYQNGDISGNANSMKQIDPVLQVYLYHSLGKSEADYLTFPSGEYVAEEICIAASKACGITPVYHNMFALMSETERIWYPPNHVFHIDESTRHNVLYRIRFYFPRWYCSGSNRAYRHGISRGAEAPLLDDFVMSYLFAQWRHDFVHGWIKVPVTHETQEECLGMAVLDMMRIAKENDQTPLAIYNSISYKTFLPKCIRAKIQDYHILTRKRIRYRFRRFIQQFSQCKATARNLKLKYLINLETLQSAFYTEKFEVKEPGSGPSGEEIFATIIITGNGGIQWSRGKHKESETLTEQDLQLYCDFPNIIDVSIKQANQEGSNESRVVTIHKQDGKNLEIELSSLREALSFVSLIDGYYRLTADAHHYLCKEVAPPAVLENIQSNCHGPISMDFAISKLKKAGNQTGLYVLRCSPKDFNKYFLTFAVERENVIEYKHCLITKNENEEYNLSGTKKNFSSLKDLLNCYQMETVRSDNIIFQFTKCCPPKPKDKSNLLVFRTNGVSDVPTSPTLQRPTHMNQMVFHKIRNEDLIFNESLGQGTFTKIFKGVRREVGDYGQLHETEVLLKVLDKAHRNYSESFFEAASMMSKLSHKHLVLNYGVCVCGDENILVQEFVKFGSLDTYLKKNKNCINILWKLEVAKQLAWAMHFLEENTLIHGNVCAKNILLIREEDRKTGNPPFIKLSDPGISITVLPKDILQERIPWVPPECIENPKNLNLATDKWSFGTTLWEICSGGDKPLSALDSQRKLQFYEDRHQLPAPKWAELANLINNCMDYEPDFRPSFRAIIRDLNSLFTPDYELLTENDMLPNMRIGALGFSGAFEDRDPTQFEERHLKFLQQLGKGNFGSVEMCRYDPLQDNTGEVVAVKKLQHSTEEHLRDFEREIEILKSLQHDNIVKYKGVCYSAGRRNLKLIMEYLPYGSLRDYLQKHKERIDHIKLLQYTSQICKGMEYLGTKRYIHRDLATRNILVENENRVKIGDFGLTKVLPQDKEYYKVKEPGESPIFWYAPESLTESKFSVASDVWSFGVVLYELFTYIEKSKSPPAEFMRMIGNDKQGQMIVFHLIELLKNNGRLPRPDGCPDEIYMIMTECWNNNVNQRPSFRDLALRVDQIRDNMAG
Protocol: (§2) Assay 1: Biochemical JAK and Tyk2 Kinase Assays
(§3) A panel of four LanthaScreen JAK biochemical assays (JAK1, 2, 3 and Tyk2) were carried in a common kinase reaction buffer (50 mM HEPES, pH 7.5, 0.01% Brij-35, 10 mM MgCl2, and 1 mM EGTA). Recombinant GST-tagged JAK enzymes and a GFP-tagged STAT1 peptide substrate were obtained from Life Technologies.
(§4) Serially or discretely diluted compounds were pre-incubated with each of the four JAK enzymes and the substrate in white 384-well microplates (Corning) at ambient temperature for 1 h. ATP was subsequently added to initiate the kinase reactions in 10 μL total volume, with 1% DMSO. […] Kinase reactions were allowed to proceed for 1 hour at ambient temperature before a 10 μL preparation of EDTA (10 mM final concentration) and Tb-anti-pSTAT1 (pTyr701) antibody (Life Technologies, 2 nM final concentration) in TR-FRET dilution buffer (Life Technologies) was added. The plates were allowed to incubate at ambient temperature for 1 h before being read on the EnVision reader (Perkin Elmer). Emission ratio signals (520 nm/495 nm) were recorded and utilized to calculate the percent inhibition values based on DMSO and background controls.
(§5) For dose-response analysis, percent inhibition data were plotted vs. compound concentrations, and IC50 values were determined from a 4-parameter robust fit model with the Prism software (GraphPad Software). Results were expressed as pIC50 (negative logarithm of IC50) and subsequently converted to pKi (negative logarithm of dissociation constant, Ki) using the Cheng-Prusoff equation.

JAK3 = JAK3 (Homo sapiens (Human), UniProt P52333); experiment: Biochemical JAK and Tyk2 kinase assays (LanthaScreen): JAK3; details: for JAK 3 (pKi) / Ki: 1 h pre-incubation, ATP at Km, pIC50 converted to pKi by Cheng-Prusoff; for JAK3 (pKi)-JAK1 (pKi): difference of pKi values, selectivity JAK3 over JAK1; for Ki: read-out: JAK 3 (pKi) (converted)
Sequence of JAK3 (P52333 whole entry): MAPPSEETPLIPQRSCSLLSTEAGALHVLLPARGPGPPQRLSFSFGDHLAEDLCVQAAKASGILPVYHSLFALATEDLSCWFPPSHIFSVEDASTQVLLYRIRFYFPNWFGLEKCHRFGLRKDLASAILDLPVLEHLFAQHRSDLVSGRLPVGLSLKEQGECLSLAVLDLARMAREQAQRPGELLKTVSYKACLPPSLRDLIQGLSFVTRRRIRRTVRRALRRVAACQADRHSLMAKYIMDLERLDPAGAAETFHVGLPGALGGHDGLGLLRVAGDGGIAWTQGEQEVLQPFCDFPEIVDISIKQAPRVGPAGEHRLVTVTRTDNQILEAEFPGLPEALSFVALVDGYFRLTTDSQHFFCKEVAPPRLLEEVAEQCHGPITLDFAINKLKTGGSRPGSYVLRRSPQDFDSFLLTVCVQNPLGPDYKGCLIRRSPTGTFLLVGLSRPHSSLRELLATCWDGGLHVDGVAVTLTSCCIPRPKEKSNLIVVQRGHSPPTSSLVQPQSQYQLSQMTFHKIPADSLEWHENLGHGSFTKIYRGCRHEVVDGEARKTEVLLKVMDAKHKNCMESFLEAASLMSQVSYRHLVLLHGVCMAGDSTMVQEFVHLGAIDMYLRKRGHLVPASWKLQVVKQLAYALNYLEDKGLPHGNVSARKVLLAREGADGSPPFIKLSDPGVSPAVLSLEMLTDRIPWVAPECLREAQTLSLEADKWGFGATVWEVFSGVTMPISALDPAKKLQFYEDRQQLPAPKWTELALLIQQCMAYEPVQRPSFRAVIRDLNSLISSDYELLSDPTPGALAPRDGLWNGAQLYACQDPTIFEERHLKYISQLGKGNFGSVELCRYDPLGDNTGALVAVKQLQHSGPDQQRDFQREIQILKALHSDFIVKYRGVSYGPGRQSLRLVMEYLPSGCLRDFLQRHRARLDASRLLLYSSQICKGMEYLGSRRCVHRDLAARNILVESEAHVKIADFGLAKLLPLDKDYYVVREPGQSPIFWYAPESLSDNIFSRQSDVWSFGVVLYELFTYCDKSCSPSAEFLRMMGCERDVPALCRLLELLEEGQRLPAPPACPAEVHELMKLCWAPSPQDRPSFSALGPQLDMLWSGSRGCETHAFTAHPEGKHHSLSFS
Method in brief: as §1

Tyk2 = Tyk2 (Homo sapiens (Human), UniProt P29597); experiment: Biochemical JAK and Tyk2 kinase assays (LanthaScreen): Tyk2; details: 1 h pre-incubation, ATP at Km; pIC50 converted to pKi by Cheng-Prusoff
Sequence of Tyk2 (P29597 whole entry): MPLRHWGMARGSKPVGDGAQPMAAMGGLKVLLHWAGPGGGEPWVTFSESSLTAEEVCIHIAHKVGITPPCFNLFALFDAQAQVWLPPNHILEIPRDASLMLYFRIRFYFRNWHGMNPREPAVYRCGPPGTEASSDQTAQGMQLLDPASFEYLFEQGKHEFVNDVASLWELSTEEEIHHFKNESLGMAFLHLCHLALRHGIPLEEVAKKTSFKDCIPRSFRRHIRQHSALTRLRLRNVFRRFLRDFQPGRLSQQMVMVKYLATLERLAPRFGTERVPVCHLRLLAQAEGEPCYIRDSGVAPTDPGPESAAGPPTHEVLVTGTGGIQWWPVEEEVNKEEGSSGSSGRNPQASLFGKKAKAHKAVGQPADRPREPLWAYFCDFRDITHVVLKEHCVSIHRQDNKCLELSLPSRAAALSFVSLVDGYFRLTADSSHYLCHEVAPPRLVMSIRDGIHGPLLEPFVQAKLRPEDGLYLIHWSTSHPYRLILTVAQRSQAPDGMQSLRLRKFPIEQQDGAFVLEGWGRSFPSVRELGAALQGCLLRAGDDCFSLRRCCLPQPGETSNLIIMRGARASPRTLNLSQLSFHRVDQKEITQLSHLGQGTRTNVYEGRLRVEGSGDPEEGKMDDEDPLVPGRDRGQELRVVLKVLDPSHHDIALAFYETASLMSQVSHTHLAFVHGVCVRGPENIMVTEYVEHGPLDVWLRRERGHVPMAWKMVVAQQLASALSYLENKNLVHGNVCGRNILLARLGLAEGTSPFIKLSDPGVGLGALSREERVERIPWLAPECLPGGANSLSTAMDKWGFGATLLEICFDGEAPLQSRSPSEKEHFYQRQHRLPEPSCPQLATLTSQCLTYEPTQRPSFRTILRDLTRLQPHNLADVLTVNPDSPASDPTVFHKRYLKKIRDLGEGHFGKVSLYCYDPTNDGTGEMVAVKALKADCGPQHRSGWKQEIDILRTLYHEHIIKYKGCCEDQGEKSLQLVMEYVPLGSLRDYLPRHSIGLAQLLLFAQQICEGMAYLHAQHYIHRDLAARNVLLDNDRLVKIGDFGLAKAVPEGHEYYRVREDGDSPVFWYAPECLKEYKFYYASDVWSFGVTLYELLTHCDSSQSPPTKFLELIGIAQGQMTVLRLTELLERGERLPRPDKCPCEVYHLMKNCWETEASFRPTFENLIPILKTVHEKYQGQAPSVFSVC
Protocol: as §2, §3, §4, §5

[1] = system: IL-2 stimulated pSTAT5 in Tall-1 T cells (JAK3); experiment: Cellular JAK3 potency assay: inhibition of IL-2 stimulated pSTAT5 in Tall-1 T cells; type: cell-based; details: IL-2 300 ng/ml, pSTAT5 AlphaLisa, Tall-1 human T cell line; read-out: Tall-1 (pIC50) (converted)
Method in brief: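 Human Tall-1 T cells (45,000/well) preincubated with compound 1 h at 37 °C, then stimulated with IL-2 (final 300 ng/ml) for 30 min. Lysates read for pSTAT5 (Tyr694/699) by AlphaLISA luminescence. IC50 from signal-versus-concentration curves, reported as pIC50 (mean±SD).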

[2] = system: IL-2 stimulated pSTAT5 in CD4+ T cells isolated from murine splenocytes (JAK3); experiment: Inhibition of IL-2 stimulated pSTAT5 in CD4+ T cells isolated from murine splenocytes; type: cell-based; details: Mus musculus, IL-2 7 ng/ml, read-out: pIC50, inhibition of IL-2 stimulated pSTAT5 (converted)
Protocol: Assay 3: Inhibition of IL-2 Stimulated pSTAT5 in CD4+ T Cells Isolated from Murine Splenocytes
The potency of test compounds for inhibition of interleukin-2 (IL-2) stimulated STATS phosphorylation was measured in the CD4+ T cells isolated from murine splenocytes using AlphaLisa. Because IL-2 signals through JAK3, this assay provides a measure of JAK3 cellular potency in mouse.
Phosphorylated STATS was measured via the AlphaLISA SureFire Ultra pSTAT5 (Tyr694/699) kit (PerkinElmer).
CD4+ T cells were isolated from murine splenocytes via negative selection on a magnetic column (Miltnyi Biotec) and re-suspended in assay media (phenol red-free DMEM (Life Technologies) supplemented with 10% FBS (ATCC)). Cells were seeded at 50,000 cells/well in assay media (2 μL/well). Compounds were serially diluted in DMSO and diluted to 2× final concentration in assay media. Compound was added (4 μl/well) and the cells incubated at 37° C., 5% CO2 for 1 hour, followed by the addition of IL-2 (R&D Systems; final concentration 7 ng/ml) in pre-warmed assay media (2 μL) for 30 minutes. After cytokine stimulation, cells were lysed with 2 μl of 5× AlphaLisa Lysis Buffer (PerkinElmer). The lysate was shaken at 900 rpm for 10 minutes at room temperature (RT). Phosphorylated STATS was measured via the pSTAT5 AlphaLisa kit (PerkinElmer). Freshly prepared acceptor bead mixture was dispensed onto lysate (5 ul) under green filtered <100 lux light. Plates were shaken at 900 rpm for 2 mins, briefly spun down, and incubated for 2 hrs at RT in the dark. Donor beads were dispensed (5 μl) under green filtered <100 lux light. Plates were shaken at 900 rpm for 2 mins, briefly spun down, and incubated overnight at RT in the dark. Luminescence was measured with excitation at 689 nm and emission at 570 nm using an EnVision plate reader (PerkinElmer) under green filtered <100 lux light.
To determine the inhibitory potency of test compounds in response to IL-2, the average emission intensity of beads bound to pSTATS was measured in primary CD4+ T cells isolated from murine splenocytes. IC50 values were determined from analysis of the inhibition curves of signal intensity vs compound concentration. Data are expressed as pIC50 (negative decadic logarithm IC50) values (mean±standard deviation).

[3] = Colon and plasma mouse pharmacokinetics; type: in vivo; details: ratio of colon AUC to plasma AUC, male Balb/c mice, 10 mg/kg PO; for Kp: mouse
Protocol: Assay 6: Colon and Plasma Mouse Pharmacokinetics
6 male Balb/c mice were administered 10 mg/kg of compound in 1% HPMC+0.1% Tween-80 by PO administration. At 0.5, 2 and 6 hours after dose administration, animals were anesthetized, and terminal blood samples were collected by cardiac puncture, followed by collection of colon contents and colon tissue.
Blood samples were collected into K2EDTA and stored on wet ice until processed to plasma by centrifugation (12,000 rpm at 4° C.). Plasma samples were transferred to cluster tubes and placed on dry ice prior to freezer storage. The colon contents from each animal were collected at each terminal blood collection time point. The colon tissues were flushed with saline and patted dry. The colon and colon content tissues were homogenized using sterile water containing 0.1% formic acid 9:1 (water:tissue, v/w). The homogenized tissues and colon contents were transferred to cluster tubes and placed on dry ice prior to freezer storage. All samples were analyzed using LC/MS/MS against analytical standards.
The composite pharmacokinetic parameters of the compounds were determined by non-compartmental analysis using Phoenix WinNonlin Version 6 (Certara, St. Louis, Mo.) and using mean values from 2 animals/time point. For plasma concentrations below the quantification limit (BQL), the lowest concentration measurable or the BLOQ (below limit of quantification) was used.
A colon to plasma ratio was determined as the ratio of the colon AUC to the plasma AUC.

Caco-2 cell monolayers = experiment: Caco-2 permeation assay; type: in vitro ADME, human; details: for Caco Kp 10^−6 cm/sec: 5 μM, A to B, + Verapamil 25 μM, 120 minutes
From the text: Assay 5: Caco-2 Permeation Assay

Sequence of JAK1 (P23458 whole entry): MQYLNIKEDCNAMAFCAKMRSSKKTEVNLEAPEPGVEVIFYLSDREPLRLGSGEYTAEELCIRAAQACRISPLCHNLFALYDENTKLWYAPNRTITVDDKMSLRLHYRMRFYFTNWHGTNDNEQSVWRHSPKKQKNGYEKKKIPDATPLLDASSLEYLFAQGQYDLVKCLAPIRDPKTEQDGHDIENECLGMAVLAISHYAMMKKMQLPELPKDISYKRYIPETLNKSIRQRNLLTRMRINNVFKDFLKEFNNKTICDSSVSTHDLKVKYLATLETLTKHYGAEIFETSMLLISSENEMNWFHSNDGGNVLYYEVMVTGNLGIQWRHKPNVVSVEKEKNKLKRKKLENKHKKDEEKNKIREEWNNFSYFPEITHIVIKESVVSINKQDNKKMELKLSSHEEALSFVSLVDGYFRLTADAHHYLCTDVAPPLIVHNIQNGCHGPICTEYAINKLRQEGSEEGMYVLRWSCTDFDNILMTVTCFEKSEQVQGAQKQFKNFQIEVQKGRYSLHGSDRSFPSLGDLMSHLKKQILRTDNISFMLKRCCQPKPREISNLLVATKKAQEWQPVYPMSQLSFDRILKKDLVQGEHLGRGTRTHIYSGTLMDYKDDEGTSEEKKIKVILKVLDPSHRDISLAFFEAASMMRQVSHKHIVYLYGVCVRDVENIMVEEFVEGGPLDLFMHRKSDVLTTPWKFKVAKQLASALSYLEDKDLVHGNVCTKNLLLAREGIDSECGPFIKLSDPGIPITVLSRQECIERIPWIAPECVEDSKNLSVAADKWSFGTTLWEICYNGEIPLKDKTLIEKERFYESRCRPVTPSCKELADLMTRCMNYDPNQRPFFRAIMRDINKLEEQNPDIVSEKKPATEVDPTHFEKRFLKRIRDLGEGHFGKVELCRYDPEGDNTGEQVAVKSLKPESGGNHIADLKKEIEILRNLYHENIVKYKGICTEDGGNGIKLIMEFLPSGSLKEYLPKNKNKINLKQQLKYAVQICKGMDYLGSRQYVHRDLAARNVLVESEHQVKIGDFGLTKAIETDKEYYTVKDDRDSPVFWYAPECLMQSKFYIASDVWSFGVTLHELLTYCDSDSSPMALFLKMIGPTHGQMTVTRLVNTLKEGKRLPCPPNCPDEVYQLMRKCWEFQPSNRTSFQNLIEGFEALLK

Compound | JAK 1 (pKi) (JAK1) | Ki (JAK2) | JAK 3 (pKi) (JAK3) | JAK3 (pKi)-JAK1 (pKi) (JAK3) | Tyk 2 (pKi) (Tyk2) | IC50 [1] | IC50 [2] | Kp [3] | Ki (JAK1) | Ki (JAK3) | Caco Kp 10^−6 cm/sec (Caco-2 cell monolayers) | JAK 2 (pKi) (JAK2) | Kp value (Caco-2 cell monolayers; A to B + Verapamil, unit not given, thresholds in same block in 10^−6 cm/sec) | colon to plasma ratio [3]
C=CC(=O)N1CC[C@@H](Oc2cc(-c3ccc(O)cc3)cn3cncc23)C[C@H]1C [Example 15, 1-((2R,4R)-4-((6-(4-hydroxyphenyl)imidazo[1,5-a]pyridin-8-yl)oxy)-2-methylpiperidin-1-yl)prop-2-en-1-one] | E (E represents a pKi value of 7 or below (Ki of 100 nM or above)) | 10 to 100 nM | A (A represents a pKi value≥10 (Ki≤0.1 nM)) | A (A represents a value of 3 or above) | E (E represents a pKi value of 7 or below (Ki of 100 nM or above)) | ≤ 31.6 nM | < 1000 nM | > 30 |  |  |  |  |  | 
C=CC(=O)N1CCC[C@H](Oc2cc(-c3cc(F)c(O)cc3CC)cn3cncc23)C1 [Example 16] |  | 10 to 100 nM |  | B (B represents a value of 2.3 to 3) | E (E represents a pKi value of 7 or below (Ki of 100 nM or above)) | 31.6 to 200 nM |  | > 200 | 10 to 100 nM | 0.1 to 1 nM | C (C represents a value between 10×10^−6 and 25×10^−6 cm/sec) |  |  | 
CCc1cc(O)c(F)cc1-c1cc(OCC2CN(C(=O)/C=C/CN(C)C)C2)c2cncn2c1 [Example 24] | E (E represents a pKi value of 7 or below (Ki of 100 nM or above)) |  | A (A represents a pKi value≥10 (Ki≤0.1 nM)) | A (A represents a value of 3 or above) | E (E represents a pKi value of 7 or below (Ki of 100 nM or above)) | 31.6 to 200 nM | < 1000 nM | > 200 |  |  | A (A represents a value below 5×10^−6 cm/sec) | E (E represents a pKi value of 7 or below (Ki of 100 nM or above)) |  | 
C=CC(=O)N1CC(C(C)(C)Oc2cc(-c3ccc(O)cc3)cn3cncc23)C1 [Example 28] | E (E represents a pKi value of 7 or below (Ki of 100 nM or above)) |  | A (A represents a pKi value≥10 (Ki≤0.1 nM)) | A (A represents a value of 3 or above) | E (E represents a pKi value of 7 or below (Ki of 100 nM or above)) | 31.6 to 200 nM | < 1000 nM |  |  |  | A (A represents a value below 5×10^−6 cm/sec) | E (E represents a pKi value of 7 or below (Ki of 100 nM or above)) |  | 
C=CC(=O)N1CCC(Oc2cc(-c3ccc(O)cc3)cn3cncc23)CC1 [Example 30] | E (E represents a pKi value of 7 or below (Ki of 100 nM or above)) |  | A (A represents a pKi value≥10 (Ki≤0.1 nM)) | A (A represents a value of 3 or above) | E (E represents a pKi value of 7 or below (Ki of 100 nM or above)) | 31.6 to 200 nM |  | > 8 |  |  | C (C represents a value between 10×10^−6 and 25×10^−6 cm/sec) | E (E represents a pKi value of 7 or below (Ki of 100 nM or above)) |  | 
C=CC(=O)N1CC(COc2cc(-c3cc(F)c(O)c(Cl)c3)cn3cncc23)C1 [Example 31] | E (E represents a pKi value of 7 or below (Ki of 100 nM or above)) |  | A (A represents a pKi value≥10 (Ki≤0.1 nM)) | A (A represents a value of 3 or above) | E (E represents a pKi value of 7 or below (Ki of 100 nM or above)) | 31.6 to 200 nM | < 1000 nM |  |  |  | A (A represents a value below 5×10^−6 cm/sec) | E (E represents a pKi value of 7 or below (Ki of 100 nM or above)) |  | 
C=CC(=O)N1CC(COc2cc(-c3ccc(O)c(C)c3)cn3cncc23)C1 [Example 34] | E (E represents a pKi value of 7 or below (Ki of 100 nM or above)) |  |  | A (A represents a value of 3 or above) | E (E represents a pKi value of 7 or below (Ki of 100 nM or above)) | 31.6 to 200 nM | < 1000 nM |  |  | 0.1 to 1 nM | B (B represents a value between 5×10^−6 and 10×10^−6 cm/sec) | E (E represents a pKi value of 7 or below (Ki of 100 nM or above)) |  | 
C=CC(=O)N1C[C@H](Nc2ncnc3[nH]ccc23)CC[C@@H]1C [PF-06651600, 2-propen-1-one, 1-[(2S,5R)-2-methyl-5-(7H-pyrrolo[2,3-d]pyrimidin-4-ylamino)-1-piperidinyl], reference compound] |  |  |  |  |  |  |  |  |  |  |  |  | 25 | 2.8
